Source: patent US10174033B2, “N6-substituted adenosine derivatives and N6-substituted adenine derivatives and uses thereof” (INSTITUTE OF MATERIA MEDICA, CHINESE ACADEMY OF MEDICAL …, priority 2009, dated 2019)

Tested on: male ICR-mice
Experiment: Potentiation of sodium pentobarbital sleeping time test
Format: in vivo
Settings: intraperitoneal, 1 mg/kg, 38 mg/kg sodium pentobarbital 30 min later
Protocol: Effects of N^6-substituted adenosine derivatives and/or N^6-substituted adenine derivatives on sodium pentobarbital-induced sleeping time in mice.
Name of Experiment: Potentiation of sodium pentobarbital sleeping time test.
Method of Experiment: Groups of 8-10 male ICR-mice with an average weight of 18-22 g were used. They were dosed orally or i.p. with the test compound or the vehicle. Thirty min after i.p. injection or 60 min after oral dosing 38 mg/kg sodium pentobarbital were injected intravenously. The latency and duration of sleep (loss of righting reflex) were recorded. The percentage of prolongation of sleeping time was calculated as: [(sleeping time of experimental group)−(sleeping time of control group)]/(sleeping time of control group)×100%.

In order of falling “Sleep prolonging rate (%)” value:
1. Nc1ccc(CNc2ncnc3c2ncn3[C@@H]2O[C@H](CO)[C@@H](O)[C@H]2O)cc1 [Example 6, N^6-(p-aminobenzyl)-adenosine]  165%
2. COc1cc(CNc2ncnc3c2ncn3[C@@H]2O[C@H](CO)C(O)C2O)cc(OC)c1OC (some centres unmarked) [Example 37, N^6-(3,4,5-trimethxoybenzyl)-adenosine]  112%

Same assay, conditions: intraperitoneal, 5 mg/kg, 38 mg/kg sodium pentobarbital 30 min later

In order of rising “Sleep prolonging rate (%)” value:
1. Cc1ccc(CNc2ncnc3c2ncn3[C@@H]2O[C@H](CO)[C@@H](O)[C@H]2O)o1 [Example 18, N^6-(5-methyl-2-furanylmethyl)-adenosine]  7%
2. O=C(O)[C@@H]1CCCN1c1ncnc2c1ncn2[C@@H]1O[C@H](CO)C(O)C1O (some centres unmarked) [Example 118, N-(6-adenosine)-(L)-proline]  29%

Same assay, conditions: oral, 5 mg/kg, 38 mg/kg sodium pentobarbital 60 min later

In order of falling “Sleep prolonging rate (%)” value:
1. CC[C@@H](Nc1ncnc2c1ncn2[C@@H]1O[C@H](COC(C)=O)C(O)C1O)c1ccccc1 (stereo partly drawn) [Example 77, N^6-[(R)-1-(phenyl)-propyl]-adenosine-5′-acetate]  590%
2. CC[C@@H](Nc1ncnc2c1ncn2[C@@H]1O[C@H](COC(C)=O)C(OC(C)=O)C1OC(C)=O)c1ccccc1 (stereo partly drawn) [Example 76, N^6-[(R)-1-(phenyl)-propyl]-adenosine-2′,3′,5′-triacetate]  339%
3. CCCOC[C@H]1O[C@@H](n2cnc3c(N[C@H](CC)c4ccccc4)ncnc32)C(O)C1O (stereo partly drawn) [Example 86, N^6-[(R)-1-(phenyl)-propyl]-adenosine-5′-propyl ether]  318%
4. OCC(CO)Nc1ncnc2c1ncn2[C@@H]1O[C@H](CO)C(O)C1O (some centres unmarked) [Example 129, N^6-[2-(1,3-dihydroxy)-propyl]-adenosine]  184%
5. CCCCCCCC(=O)OC[C@H]1O[C@@H](n2cnc3c(NCc4ccc(OC(=O)CCCCCCC)c(OC)c4)ncnc32)[C@H](O)[C@@H]1O [Example 26, N^6-(3-methoxy-4-octanoyloxybenzyl)-adenosine-5′-caprylate]  184%
6. Nc1ccc(CNc2ncnc3c2ncn3[C@@H]2O[C@H](CO)[C@@H](O)[C@H]2O)cc1 [Example 6, N^6-(p-aminobenzyl)-adenosine]  171%
7. C[C@@H](Nc1ncnc2c1ncn2[C@@H]1O[C@H](CO)[C@@H](O)[C@H]1O)c1ccc(Cl)cc1 [Example 68, N^6-[(R)-1-(4-chlorophenyl)-ethyl]-adenosine]  103%
8. Cc1ccc([C@@H](C)Nc2ncnc3c2ncn3[C@@H]2O[C@H](CO)[C@@H](O)[C@H]2O)cc1 [Example 59, N^6-[(R)-1-(4-methylphenyl)-ethyl]-adenosine]  99%
9. CCCC(Nc1ncnc2c1ncn2[C@@H]1O[C@H](CO)[C@@H](O)[C@H]1O)c1ccccc1 (mixture of isomers) [Example 87, N^6-[(±)-1-(phenyl)-butyl]-adenosine]  57%
10. CN(c1ncnc2c1ncn2[C@@H]1O[C@H](CO)[C@@H](O)[C@H]1O)C1CCCCC1 [Example 141, N^6-methyl-N^6-cyclohexyl-adenosine]  55%
11. CSCC[C@@H](CO)Nc1ncnc2c1ncn2[C@@H]1O[C@H](CO)C(O)C1O (some centres unmarked) [Example 132, N^6-[(L)-2-(1-hydroxy-4-methylthioyl)-butyl]-adenosine]  53%
12. OC[C@H]1O[C@@H](n2cnc3c(NC4c5ccccc5-c5ccccc54)ncnc32)[C@H](O)[C@@H]1O [Example 98, N^6-(fluorene-9-yl)-adenosine]  53%
13. CC[C@H](Nc1ncnc2c1ncn2[C@@H]1O[C@H](COC(=O)/C=C/c2ccc(C)cc2)C(O)C1O)c1ccccc1 (stereo in doubt) [Example 82, N^6-[(S)-1-(phenyl)-propyl]-adenosine-5′-p-methyl-cinnamate]  50%
14. OC[C@H]1O[C@@H](n2cnc3c(N[C@H](c4ccccc4)[C@@H](O)c4ccccc4)ncnc32)C(O)C1O (stereo partly drawn) [Example 99, N^6-{(1S,2R)-[2-hydroxy-(1,2-diphenyl)]-ethyl}-adenosine]  46%
15. C[C@H]([C@H](O)c1ccccc1)N(C)c1ncnc2c1ncn2[C@@H]1O[C@H](CO)C(O)C1O (stereo partly drawn) [Example 136, N^6-methyl-N^6-[2-(1R,2R)-(1-hydroxy-1-phenyl)-propyl]-adenosine]  44%
16. CC[C@@H](Nc1ncnc2[nH]cnc12)c1ccccc1 [Example 144, N^6-[(R)-1-(phenyl)-propyl]-adenine]  42%
17. CC[C@H](Nc1ncnc2c1ncn2[C@@H]1O[C@H](COC(C)=O)C(OC(C)=O)C1OC(C)=O)c1ccccc1 (stereo partly drawn) [Example 79, N^6-[(S)-1-(phenyl)-propyl]-adenosine-2′,3′,5′-triacetate]  41%
18. C[C@H]([C@@H](O)c1ccccc1)N(C)c1ncnc2c1ncn2[C@@H]1O[C@H](CO)C(O)C1O (stereo partly drawn) [Example 135, N^6-methyl-N^6-[2-(1S,2R)-(1-hydroxy-1-phenyl)-propyl]-adenosine]  39%
19. OC[C@H]1O[C@@H](n2cnc3c(NC4CCCc5c(O)cccc54)ncnc32)[C@H](O)[C@@H]1O (mixture of isomers) [Example 97, N^6-[(±)-(5-hydroxy-1,2,3,4-tetrahydro-naphthalene-1-yl)]-adenosine]  39%
20. CC[C@H](C)[C@@H](CO)Nc1ncnc2c1ncn2[C@@H]1O[C@H](CO)C(O)C1O (some centres unmarked) [Example 131, N^6-[(L)-2-(1-hydroxy-3-methyl)-pentyl]-adenosine]  36%
21. CCCOC[C@H]1O[C@@H](n2cnc3c(NCc4ccc5c(c4)OCO5)ncnc32)C(O)C1O (some centres unmarked) [Example 35, N^6-(3,4-methylenedioxybenzyl)-adenosine-5′-propyl ether]  36%
22. OC[C@H]1O[C@@H](n2cnc3c(NC(Cc4ccccc4)c4ccccc4)ncnc32)C(O)C1O (mixture of isomers) [Example 94, N^6-[(±)-1-(1,2-diphenyl)-ethyl]-adenosine]  36%
23. CCOC(=O)[C@H](Cc1ccc(O)cc1)Nc1ncnc2c1ncn2[C@@H]1O[C@H](CO)C(O)C1O (some centres unmarked) [Example 109, N-(6-adenosine)-(L)-tyrosine ethyl ester]  36%
24. Cc1ccc(CNc2ncnc3c2ncn3[C@H]2C[C@H](O)[C@@H](CO)O2)cc1 [Example 151, N^6-(p-methylbenzyl)-2′-deoxy-adenosine]  34%
25. OC[C@H](Nc1ncnc2c1ncn2[C@@H]1O[C@H](CO)C(O)C1O)[C@@H](O)c1ccccc1 (stereo partly drawn) [Example 41, N^6-[(1S,2S)-2-(1,3-dihydroxy-1-phenyl)-propyl]-adenosine]  33%
26. CC(=O)OC[C@H]1O[C@@H](n2cnc3c(NCc4ccc5c(c4)OCO5)ncnc32)C[C@H]1OC(C)=O [Example 154, N^6-(3,4-methylenedioxy-benzyl)-3′,5′-diacetyl-2′-deoxyadenosine]  29%
27. CN(Cc1ccccc1)c1ncnc2c1ncn2[C@@H]1O[C@H](CO)[C@@H](O)[C@H]1O [Example 133, N^6-methyl-N^6-benzyl-adenosine]  27%
28. CCCCCCCC(=O)OC[C@H]1O[C@@H](n2cnc3c(NCc4ccc5c(c4)OCO5)ncnc32)[C@H](O)[C@@H]1O [Example 32, N^6-(3,4-methylenedioxybenzyl)-adenosine-5′-caprylate]  26%
29. CC[C@H](Nc1ncnc2c1ncn2[C@@H]1O[C@H](COC(C)=O)C(O)C1O)c1ccccc1 (stereo partly drawn) [Example 80, N^6-[(S)-1-(phenyl)-propyl]-adenosine-5′-acetate]  24%
30. C[C@@H](Nc1ncnc2[nH]cnc12)c1ccccc1 [Example 142, N^6-[(R)-1-(phenyl)-ethyl]-adenine]  21%
31. CCCC(=O)OCC1OC(n2cnc3c(NCc4ccc(OC(=O)CCC)c(OC)c4)ncnc32)C2OC(C)(C)OC12 (centres unmarked) [N^6-(3-methoxy-4-butanoyloxy-benzyl)-2′,3′-O-isopropylidene-adenosine-5′-butyrate]  21%
32. OC[C@H]1O[C@@H](n2cnc3c(NC(c4ccccc4)c4ccccc4)ncnc32)[C@H](O)[C@@H]1O [Example 95, N^6-(diphenylmethyl)-adenosine]  16%
33. CCCOC[C@H]1O[C@@H](n2cnc3c(NC(C)c4cc(OC)c(OC)c(OC)c4)ncnc32)C(O)C1O (mixture of isomers) [Example 55, N^6-[(±)-1-(3,4,5-trimethoxyphenyl)-ethyl]-adenosine-5′-propyl ether]  14%
34. CCCC(=O)Oc1ccc(CNc2ncnc3c2ncn3[C@@H]2O[C@H](CO)[C@@H](O)[C@H]2O)cc1OC [N^6-(3-methoxy-4-butanoyloxy-benzyl)-adenosine]  11%
35. CCCC(=O)OC[C@H]1O[C@@H](n2cnc3c(NCc4ccc(OC(=O)CCC)c(OC)c4)ncnc32)[C@@H](O)C1O (some centres unmarked) [N^6-(3-methoxy-4-butanoyloxy-benzyl)-adenosine-5′-butyrate]  11%
36. CC(=O)OC[C@H]1O[C@@H](n2cnc3c(NCc4ccc(C)cc4)ncnc32)C[C@H]1OC(C)=O [Example 150, N^6-(p-methylbenzyl)-2′-deoxy-3′,5′-diacetyl adenosine]  9%
37. CCOC(=O)[C@H](Cc1c[nH]c2ccccc12)Nc1ncnc2c1ncn2[C@@H]1O[C@H](CO)C(O)C1O (some centres unmarked) [Example 113, N-(6-adenosine)-(L)-tryptophan ethyl ester]  7%
38. CCN(Cc1ccccc1)c1ncnc2c1ncn2[C@@H]1O[C@H](CO)[C@@H](O)[C@H]1O [Example 134, N^6-ethyl-N^6-benzyl-adenosine]  7%
39. CCN(CCO)c1ncnc2c1ncn2[C@@H]1O[C@H](CO)[C@@H](O)[C@H]1O [Example 139, N^6-ethyl-N^6-(2-hydroxyethyl)-adenosine]  5%
40. N^6-[(S)-1-(phenyl)-propyl]-adenosine-5′-decanoic ether [Example 84]  4%
